Experimental findings from patent US20020028938A1, “Prostaglandin endoperoxide H synthase biosynthesis inhibitors” (priority 1997, published 2002) are described below.

Series [1] has as its target T1, human amnionic whole cell cyclooxygenase-2 (WISH cells) (Homo sapiens, UniProt P35354).
T1 construct: endogenous in cells; host or cells: human amnionic WISH cells, induced with IL-1beta
T1 sequence (P35354 18-604): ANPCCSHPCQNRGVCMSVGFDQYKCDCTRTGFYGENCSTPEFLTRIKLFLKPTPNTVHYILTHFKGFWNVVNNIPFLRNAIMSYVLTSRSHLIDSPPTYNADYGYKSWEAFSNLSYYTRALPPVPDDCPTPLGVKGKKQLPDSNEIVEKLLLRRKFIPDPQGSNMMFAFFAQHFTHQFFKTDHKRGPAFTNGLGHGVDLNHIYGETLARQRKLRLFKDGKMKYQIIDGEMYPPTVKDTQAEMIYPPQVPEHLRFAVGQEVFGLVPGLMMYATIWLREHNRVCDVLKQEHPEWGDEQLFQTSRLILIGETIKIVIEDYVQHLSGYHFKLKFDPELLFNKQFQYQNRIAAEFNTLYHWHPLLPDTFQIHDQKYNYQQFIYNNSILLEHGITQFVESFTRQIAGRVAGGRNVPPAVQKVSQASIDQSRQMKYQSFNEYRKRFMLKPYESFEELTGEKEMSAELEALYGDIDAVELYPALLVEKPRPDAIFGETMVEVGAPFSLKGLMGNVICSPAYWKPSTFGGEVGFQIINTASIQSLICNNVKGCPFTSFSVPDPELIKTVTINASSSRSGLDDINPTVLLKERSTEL
As to the kind of experiment: IL-1β induced PGE2 production in WISH cells. Type of series: cell-based. The settings on record: for IC50: read-out: Wish IC50 (parenthetical value); for inhibition at 0.01 µM / inhibition at 0.1 µM / inhibition at 1 µM: read-out: Wish % Inhib. at Dose. On the procedure: EIA reagents for prostaglandin determination were purchased from Perseptive Diagnostics, (Cambridge, Mass.). Prostaglandin E2 (PGE2) levels in lavage fluids were determined after the samples were dried under nitrogen and reconstituted with assay buffer. PGE2 levels in enzyme assays or cell culture media were measured against standards prepared in the same milieu. The immunoassays were conducted as recommended by the manufacturer. The EIA was conducted in 96 well microtiter plates (Nunc Roskilde, Denmark) and optical density was measured using a microplate reader (Vmax, Molecular Devices Corp., Menlo Park, Calif.).
Human amnionic WISH cells were grown to 80% confluence in 48 well plates. Following removal of the growth medium and two washings with Geys Balanced Salt Solutn, 5 ng IL-1β /ml (UBI, Lake Placid, N.Y.) was added to the cells with or without test compound in DMSO (0.01% v/v) in Neuman-Tytell Serumless Medium (GIBCO, Grand Island, N.Y.).

The target of series [2] is T2, recombinant human Cox-1 (r-hu Cox1) (Homo sapiens, UniProt P23219).
T2 construct: made in house; host or cells: baculovirus/Sf9 insect cells (microsomes)
T2 sequence (P23219 24-599): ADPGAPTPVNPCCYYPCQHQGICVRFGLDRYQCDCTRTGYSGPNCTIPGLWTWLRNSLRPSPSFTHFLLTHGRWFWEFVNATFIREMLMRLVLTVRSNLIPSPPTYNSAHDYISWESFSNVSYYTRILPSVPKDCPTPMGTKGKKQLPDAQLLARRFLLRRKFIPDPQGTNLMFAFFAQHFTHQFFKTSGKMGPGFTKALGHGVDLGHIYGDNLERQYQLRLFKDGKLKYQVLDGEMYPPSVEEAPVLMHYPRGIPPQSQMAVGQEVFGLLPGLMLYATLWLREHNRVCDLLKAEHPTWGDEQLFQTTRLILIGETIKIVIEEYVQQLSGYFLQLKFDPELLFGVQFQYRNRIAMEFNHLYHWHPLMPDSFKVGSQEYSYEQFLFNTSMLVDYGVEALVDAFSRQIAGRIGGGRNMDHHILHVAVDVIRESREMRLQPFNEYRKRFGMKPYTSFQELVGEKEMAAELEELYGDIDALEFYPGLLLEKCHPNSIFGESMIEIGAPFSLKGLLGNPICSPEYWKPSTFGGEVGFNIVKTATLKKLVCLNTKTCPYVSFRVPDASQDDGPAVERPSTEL
As to the kind of experiment: Recombinant human PGHS-1 enzyme assay (RHUCX1). It is filed as biochemical. The gist of the method:
(§1)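 Prostaglandin biosynthesis was measured as PGE2 output, read by enzyme immunoassay after a 2.5-minute room-temperature reaction stopped with HCl and neutralized with NaOH.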

Series [3] has as its target T3, recombinant human Cox-2 (r-hu Cox-2) (Homo sapiens, UniProt P35354).
T3 construct: made in house; host or cells: baculovirus/Sf9 insect cells (microsomes)
T3 sequence (P35354 18-604): T1 sequence (P35354 18-604)
As to the kind of experiment: Recombinant human PGHS-2 enzyme assay (RHUCX2). Type of series: biochemical. The settings on record: for IC50: read-out: RHUCX2 IC50 (parenthetical value). The gist of the method:
as §1

Setting [4] is: 100 μM, read-out: RHUCX1 % Inh. at Dose.
Where [5] appears, read: read-out: RHUCX2 % Inh. at Dose.

`CS(=O)(=O)c1ccc(-c2cnn(Cc3ccccc3)c(=O)c2-c2ccc(Cl)c(Cl)c2)cc1` [Example 65, 2-Benzyl-4-(3,4-dichlorophenyl)-5-[4-(methylsulfonyl)phenyl]-3(2H)-pyridazinone] displayed a melting point of 161 to 163 °C. Further, the 50% inhibitory concentration (IC50) in series [1] turned out to be 20 nM. In series [2] (setting [4]), the inhibition at 100 µM was 13%. Moreover, in series [3] (setting [5]), the inhibition at 0.1 µM was determined as 65% and the inhibition at 1 µM came to 98%.
Consider `CS(=O)(=O)c1ccc(-c2cnn(-c3ccc(F)c(Cl)c3)c(=O)c2-c2ccc(Cl)cc2)cc1` [Example 102, 2-(3-Chloro-4-fluorophenyl)-4-(4-chlorophenyl)-5-[4-(methylsulfonyl)phenyl]-3(2H)-pyridazinone], for which the melting point is 205 °C. For the same compound, the IC50 in series [1] was found to be 50 nM.
`CS(=O)(=O)c1ccc(-c2cnn(C3CCc4ccccc43)c(=O)c2-c2ccc(F)cc2)cc1` (stereo not shown) [Example 129, 2-(2,3-Dihydro-1H-inden-1-yl)-4-(4-fluorop,henyl)-5-[4-(methylsulfonyl)phenyl]-3(2H)-pyridazinone]: the melting point lay in the range of 128 to 130 °C. Moreover, the IC50 in series [1] amounted to 40 nM.
The compound `CS(=O)(=O)c1ccc(-c2cnn(C3C4CC5CC(C4)CC3C5)c(=O)c2-c2ccc(F)cc2)cc1` (stereo not shown) [Example 132, 2-(2-Adamantyl)-4-(4-fluorophenyl)-5-[4-(methylsulfonyl)phenyl]-3(2H)-pyridazinone] gave a melting point of 195 to 197 °C. Also, in series [1] (0.01 μM), the inhibition at 0.01 µM amounted to 36%. Moreover, in series [1], the inhibition at 0.1 µM worked out at 100%. Further, the inhibition at 1 µM in series [2] (1 μM, read-out: RHUCX1 % Inh. at Dose) came to 93%. For the same compound, in series [3] (setting [5]), the inhibition at 0.1 µM stood at 43% and the inhibition at 1 µM stood at 88%.
Regarding `NS(=O)(=O)c1ccc(-c2cnn(Cc3cc(F)c(F)cc3F)c(=O)c2-c2ccc(F)cc2)cc1` [Example 152, 2-(2,4,5-Trifluorobenzyl)-4-(4-fluorophenyl)-5-[4-(aminosulfonyl)phenyl]-3(2H)-pyridazinone], the melting point lay in the range of 236 to 238 °C. The half-inhibitory concentration (IC50) in series [1] amounted to 29 nM.
For `C=Cc1cccc(-n2ncc(-c3ccc(S(C)(=O)=O)cc3)c(-c3ccc(F)cc3)c2=O)c1` [Example 162, 2-(3-Vinylphenyl)-4-(4-fluorophenyl)-5-[4-(methylsulfonyl)phenyl]-3(2H)-pyridazinone] the same measures were 182 to 183 °C and 34 nM.
`CS(=O)(=O)c1ccc(-c2cnn(-c3ccc(F)c(F)c3)c(=O)c2Cc2ccc(F)cc2)cc1` [Example 171, 2-(3,4-Difluorophenyl)-4-(4-fluorobenzyl)-5-[4-(methylsulfonyl)phenyl]-3(2H)-pyridazinone] had a melting point of 157 to 159 °C. In series [1], the inhibition at 0.1 µM came to 56% and the inhibition at 1 µM worked out at 90%. The inhibition at 100 µM in series [2] (setting [4]) came to 0%. Besides, in series [3] (setting [5]), the inhibition at 0.1 µM is 61% and the inhibition at 1 µM was determined as 74%. Also, in series [3] (10 μM, read-out: RHUCX2 % Inh. at Dose), the inhibition at 10 µM amounted to 82%.
Compound `CS(=O)(=O)c1ccc(-c2cnn(-c3ccc(Cl)cc3F)c(=O)c2-c2ccc(F)cc2)cc1` [Example 191, 2-(4-Chloro-2-fluorophenyl)-4-(4-fluorophenyl)-5-[4-(methylsulfonyl)phenyl]-3(2H)-pyridazinone] gave a melting point of 250 to 260 °C. For the same compound, the half-inhibitory concentration (IC50) in series [1] came out at 60 nM.
As for `CC(C)CSCc1c(-c2ccc(S(C)(=O)=O)cc2)cnn(-c2ccc(F)cc2)c1=O` [Example 198, 2-(4-Fluorophenyl)-4-(2-methylpropylthiomethyl)-5-[4-(methylsulfonyl)phenyl]-3(2H)-pyridazinone], the melting point is 45 to 60 °C. For the same compound, in series [1], the IC50 worked out at 184 nM. Further, the inhibition at 100 µM in series [2] (setting [4]) amounted to 10%. Besides, in series [3] (setting [5]), the inhibition at 0.1 µM was 23% and the inhibition at 1 µM was 68%.
Consider `CC(C)Oc1c(-c2ccc(S(C)(=O)=O)cc2)cnn(-c2cccc(Br)c2)c1=O` [Example 203, 2-(3-Bromophenyl)-4-(2-propoxy)-5-[4-(methylsulfonyl)phenyl]-3(2H)-pyridazinone], for which the melting point lay within 130 to 132 °C. For the same compound, in series [1], the inhibition at 0.1 µM was 23% and the inhibition at 1 µM came to 77%.
Turning to `CS(=O)(=O)c1ccc(-c2cnn(-c3cccc(Cl)c3)c(=O)c2Cc2cccc(F)c2)cc1` [Example 241, 2-(3-Chlorophenyl)-4-(3-fluorobenzyl)-5-[4-(methylsulfonyl)phenyl]-3(2H)-pridazinone], the melting point is 142 to 143 °C. The IC50 in series [1] stood at 47.4 nM. The inhibition at 100 µM in series [2] (setting [4]) was found to be 0%. Moreover, the IC50 in series [3] came to 28 nM.
For `CC(C)CCc1c(-c2ccc(S(C)(=O)=O)c(F)c2)cnn(-c2ccc(F)c(Cl)c2)c1=O` [Example 252, 2-(3-Chloro-4-fluorophenyl)-4-(3-methylbutyl)-5-[3-fluoro-4-(methylsulfonyl)phenyl]-3(2H)-pyridazinone], the melting point lay within 102 to 104 °C. In addition, the IC50 in series [1] was found to be 44 nM. Also, the inhibition at 100 µM in series [2] (setting [4]) stood at 0%. Besides, the inhibition at 0.01 µM in series [3] (0.01 μM, read-out: RHUCX2 % Inh. at Dose) was 26%. The inhibition at 0.1 µM in series [3] (setting [5]) came to 87%.
`CS(=O)(=O)c1ccc(-c2cnn(CC(F)(F)F)c(=O)c2OCc2ccco2)cc1` [Example 271, 2-(2,2,2-Trifluoroethyl)-4-(2-furylmethoxy)-5-[4-(methylsulfonyl)phenyl]-3(2H)-pyridazinone] came in with a melting point of 113 to 115 °C. For the same compound, in series [1], the inhibition at 0.1 µM was determined as 15% and the inhibition at 1 µM was found to be 52%.
With `CC(C)COc1c(-c2ccc(S(C)(=O)=O)cc2)cnn(CC(F)(F)F)c1=O` [Example 278, 2-(2,2,2-Trifluoroethyl)-4-(2-methylpropoxy)-5-[4-(methylsulfonyl)phenyl]-3(2H)-pyridazinone], the melting point was in the range of 108 to 110 °C. Further, the half-maximal inhibitory concentration (IC50) in series [1] worked out at 70 nM. Further, in series [2] (setting [4]), the inhibition at 100 µM stood at 36%. For the same compound, in series [3] (setting [5]), the inhibition at 0.1 µM is 91% and the inhibition at 1 µM amounted to 96%.
Taken in the same sequence, the figures for `CC1(COc2c(-c3ccc(S(C)(=O)=O)cc3)cnn(CC(F)(F)F)c2=O)CC1` [Example 279] were 98 to 99 °C, 391 nM, 0%, 31% and 60%.
On to `CS(=O)(=O)c1ccc(-c2cnn(Cc3ccccc3)c(=O)c2-c2cccc([N+](=O)[O-])c2)cc1` [Example 321, 2-Benzyl-4-(3-nitrophenyl)-5-[4-(methylsulfonyl)phenyl]-3(2H)-pyridazinone], for which the inhibition at 0.01 µM in series [1] (0.01 μM) came out at 50%. Also, the inhibition at 100 µM in series [2] (setting [4]) came to 4%. In addition, in series [3], the half-maximal inhibitory concentration (IC50) was determined as 192 nM.
As for `C=Cc1ccc(-c2c(-c3ccc(S(C)(=O)=O)cc3)cnn(Cc3ccccc3)c2=O)cc1` [Example 322, 2-Benzyl-4-(4-vinylphenyl)-5-[4-(methylsulfonyl)phenyl]-3(2H)-pridazinone], the values for the concentration for half-maximal inhibition (IC50) in series [1] and in series [3] were 26 nM and 58 nM, respectively. For the same compound, the inhibition at 10 µM in series [2] (10 μM, read-out: RHUCX1 % Inh. at Dose) was 54%. Besides, the inhibition at 100 µM in series [2] (setting [4]) is 39%.
`CS(=O)(=O)c1ccc(-c2cnn(Cc3ccccc3)c(=O)c2-c2ccc(C(F)(F)F)cc2)cc1` [Example 323, 2-Benzyl-4-(4-trifluormethylphenyl)-5-[4-(methylsulfonyl)phenyl]-3(2H)-pyridazinone]: in series [1] (0.01 μM), the “Wish % Inhib. at Dose (μM)” value is on record as 57 @ 0.01%. Further, the “RHUCX1 % Inh. at Dose (μM)” value in series [2] (100 μM) is 1 @ 100%. In addition, in series [3], the half-inhibitory concentration (IC50) was determined as 365 nM.
Regarding `CC(C)=CCCOc1c(-c2ccc(S(N)(=O)=O)cc2)cnn(-c2ccc(F)c(F)c2)c1=O` [Example 410], in series [1], the IC50 is 53 nM. In addition, the “RHUCX1 % Inh. at Dose (μM)” value in series [2] (10 μM) is reported as 1 @ 10%; in series [2] (100 μM), 48 @ 100%. Also, the figures for the “RHUCX2 % Inh. at Dose (μM)” value in series [3] (0.017 μM) and in series [3] (0.035 μM) were 47 @ 0.017% and 67 @0 .035%, respectively.
